From patent US20240239861A1, “GLUCAGON-RECEPTOR SELECTIVE POLYPEPTIDES AND METHODS OF USE THEREOF” (i2O Therapeutics, Inc., priority 2016, published 2024)
Where a SMILES comes first, the peptide text is derived from it. [ ]: non-standard residue; d: D form. Aib = CC(C)(N)C(=O)O

Tests used:
human GCGR = human GCGR (Homo sapiens, UniProt P47871); test: Peptide-receptor mediated cAMP accumulation (LANCE Ultra cAMP) in CHO-K1 cells transfected with human GCGR; type: cell-based; conditions: Table 3
human GLP-1R = human GLP-1R (Homo sapiens, UniProt P43220); test: Peptide-receptor mediated cAMP accumulation (LANCE Ultra cAMP) in CHO-K1 cells transfected with human GLP-1R; type: cell-based; conditions: hGLP1 pEC50 (cAMP mean (n = 3): 11 point curve starting at 1 nM, Table 3)
Sequence of human GLP-1R (P43220 24-463): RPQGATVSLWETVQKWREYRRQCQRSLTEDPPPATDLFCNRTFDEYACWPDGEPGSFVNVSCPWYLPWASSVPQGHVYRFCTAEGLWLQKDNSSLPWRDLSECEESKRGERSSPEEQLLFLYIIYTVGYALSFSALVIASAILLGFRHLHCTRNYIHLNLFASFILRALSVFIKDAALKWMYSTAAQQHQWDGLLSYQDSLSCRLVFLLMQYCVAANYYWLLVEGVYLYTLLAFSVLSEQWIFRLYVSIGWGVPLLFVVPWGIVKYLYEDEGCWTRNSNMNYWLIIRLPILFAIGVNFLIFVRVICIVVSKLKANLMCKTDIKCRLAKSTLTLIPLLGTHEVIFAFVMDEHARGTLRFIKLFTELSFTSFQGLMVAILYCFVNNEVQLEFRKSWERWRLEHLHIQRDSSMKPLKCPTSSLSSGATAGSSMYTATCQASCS

Sequence of human GCGR (P47871 26-477): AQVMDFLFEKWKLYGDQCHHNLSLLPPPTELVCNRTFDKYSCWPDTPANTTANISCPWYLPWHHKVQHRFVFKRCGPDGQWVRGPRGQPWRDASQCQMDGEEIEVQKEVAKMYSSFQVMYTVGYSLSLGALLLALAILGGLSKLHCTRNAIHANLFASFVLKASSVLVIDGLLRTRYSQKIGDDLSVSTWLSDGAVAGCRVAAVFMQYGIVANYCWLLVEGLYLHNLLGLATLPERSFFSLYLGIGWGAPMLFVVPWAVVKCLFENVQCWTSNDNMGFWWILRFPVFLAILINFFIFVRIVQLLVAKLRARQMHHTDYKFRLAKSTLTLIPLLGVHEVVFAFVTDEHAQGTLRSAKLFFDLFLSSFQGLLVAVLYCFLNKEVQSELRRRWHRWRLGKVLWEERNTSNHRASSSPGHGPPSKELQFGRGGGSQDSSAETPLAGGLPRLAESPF

Structure (SMILES)	EC50 (human GCGR)	EC50 (human GLP-1R)
CC(C)C[C@H](NC(=O)[C@H](Cc1ccc(O)cc1)NC(=O)[C@H](CCCCN)NC(=O)[C@H](CO)NC(=O)[C@H](Cc1ccc(O)cc1)NC(=O)[C@H](CC(=O)O)NC(=O)[C@H](CO)NC(=O)[C@@H](NC(=O)[C@H](Cc1ccccc1)NC(=O)[C@@H](NC(=O)CNC(=O)[C@H](Cc1c[nH]cn1)NC(=O)[C@H](CO)NC(=O)[C@@H](N)Cc1ccc(O)cc1)[C@@H](C)O)[C@@H](C)O)C(=O)N[C@@H](CC(=O)O)C(=O)NC(C)(C)C(=O)N[C@@H](CCCCN)C(=O)N[C@@H](CCCNC(=N)N)C(=O)N[C@@H](C)C(=O)N[C@@H](CCC(N)=O)C(=O)N[C@@H](CCC(=O)O)C(=O)N[C@@H](Cc1ccccc1)C(=O)N[C@H](C(=O)NC(C)(C)C(=O)N[C@@H](Cc1c[nH]c2ccccc12)C(=O)N[C@@H](CC(C)C)C(=O)N[C@@H](CCC(=O)O)C(=O)N[C@@H](CC(=O)O)C(=O)N[C@@H](CCC(=O)O)C(=O)N1CCC[C@H]1C(=O)N[C@@H](CCCCN)C(=O)N[C@@H](CO)C(=O)NCC(=O)N[C@@H](C)C(=O)N1CCC[C@H]1C(=O)N1CCC[C@H]1C(=O)N1CCC[C@H]1C(=O)N[C@@H](CO)C(=O)O)C(C)C [Compound A29] (H-YSHGTFTSDYSKYLD[Aib]KRAQEFV[Aib]WLEDEPKSGAPPPS-OH)	0.00794 nM	> 1 nM
CC(C)C[C@H](NC(=O)[C@H](Cc1ccc(O)cc1)NC(=O)[C@H](CCCCN)NC(=O)[C@H](CO)NC(=O)[C@H](Cc1ccc(O)cc1)NC(=O)[C@H](CC(=O)O)NC(=O)[C@H](CO)NC(=O)[C@@H](NC(=O)[C@H](Cc1ccccc1)NC(=O)[C@@H](NC(=O)CNC(=O)[C@H](Cc1c[nH]cn1)NC(=O)[C@H](CO)NC(=O)[C@@H](N)Cc1ccc(O)cc1)[C@@H](C)O)[C@@H](C)O)C(=O)N[C@@H](CC(=O)O)C(=O)NC(C)(C)C(=O)N[C@@H](CCCCN)C(=O)N[C@@H](CCCNC(=N)N)C(=O)N[C@@H](C)C(=O)N[C@@H](CCC(N)=O)C(=O)N[C@@H](CCC(=O)O)C(=O)N[C@@H](Cc1ccccc1)C(=O)N[C@H](C(=O)NC(C)(C)C(=O)N[C@@H](Cc1c[nH]c2ccccc12)C(=O)N[C@@H](CC(C)C)C(=O)N[C@@H](CCC(=O)O)C(=O)N[C@@H](CC(=O)O)C(=O)N[C@@H](CCC(=O)O)C(=O)N1CCC[C@H]1C(=O)N[C@@H](CO)C(=O)N[C@@H](CCCCN)C(=O)NCC(=O)N[C@@H](C)C(=O)N1CCC[C@H]1C(=O)N1CCC[C@H]1C(=O)N1CCC[C@H]1C(=O)N[C@@H](CO)C(=O)O)C(C)C [Compound A30] (H-YSHGTFTSDYSKYLD[Aib]KRAQEFV[Aib]WLEDEPSKGAPPPS-OH; N-terminus assumed)	0.0126 nM	> 1 nM
CC(C)C[C@H](NC(=O)[C@H](Cc1ccc(O)cc1)NC(=O)[C@H](CCCCN)NC(=O)[C@H](CO)NC(=O)[C@H](Cc1ccc(O)cc1)NC(=O)[C@H](CC(=O)O)NC(=O)[C@H](CO)NC(=O)[C@@H](NC(=O)[C@H](Cc1ccccc1)NC(=O)[C@@H](NC(=O)CNC(=O)[C@H](Cc1c[nH]cn1)NC(=O)[C@H](CO)NC(=O)[C@@H](N)Cc1ccc(O)cc1)[C@@H](C)O)[C@@H](C)O)C(=O)N[C@@H](CC(=O)O)C(=O)NC(C)(C)C(=O)N[C@@H](CCCCN)C(=O)N[C@@H](CCCNC(=N)N)C(=O)N[C@@H](C)C(=O)N[C@@H](CCC(N)=O)C(=O)N[C@@H](CCC(=O)O)C(=O)N[C@@H](Cc1ccccc1)C(=O)N[C@H](C(=O)NC(C)(C)C(=O)N[C@@H](Cc1c[nH]c2ccccc12)C(=O)N[C@@H](CC(C)C)C(=O)N[C@@H](CCC(=O)O)C(=O)N[C@@H](CC(=O)O)C(=O)N[C@@H](CCC(=O)O)C(=O)N1CCC[C@H]1C(=O)N[C@@H](CCC(=O)O)C(=O)N[C@@H](CO)C(=O)NCC(=O)N[C@@H](C)C(=O)N1CCC[C@H]1C(=O)N1CCC[C@H]1C(=O)N1CCC[C@H]1C(=O)N[C@@H](CO)C(=O)O)C(C)C [Compound A31] (H-YSHGTFTSDYSKYLD[Aib]KRAQEFV[Aib]WLEDEPESGAPPPS-OH; N-terminus assumed)	0.002 nM	> 1 nM
CC(C)C[C@H](NC(=O)[C@H](Cc1c[nH]c2ccccc12)NC(=O)[C@H](CCCCN)NC(=O)[C@H](CO)NC(=O)[C@H](Cc1c[nH]cn1)NC(=O)[C@H](CC(=O)O)NC(=O)[C@H](CO)NC(=O)[C@@H](NC(=O)[C@H](Cc1ccccc1)NC(=O)[C@@H](NC(=O)CNC(=O)[C@H](Cc1c[nH]cn1)NC(=O)[C@H](CO)NC(=O)[C@@H](N)Cc1ccc(O)cc1)[C@@H](C)O)[C@@H](C)O)C(=O)N[C@@H](CC(=O)O)C(=O)NC(C)(C)C(=O)N[C@@H](CCCCN)C(=O)N[C@@H](CCCNC(=N)N)C(=O)N[C@@H](C)C(=O)N[C@@H](CCC(N)=O)C(=O)N[C@@H](CCC(=O)O)C(=O)N[C@@H](Cc1ccccc1)C(=O)N[C@H](C(=O)NC(C)(C)C(=O)N[C@@H](Cc1c[nH]c2ccccc12)C(=O)N[C@@H](CC(C)C)C(=O)N[C@@H](CCC(=O)O)C(=O)N[C@@H](CC(=O)O)C(=O)N[C@@H](CCC(=O)O)C(=O)N1CCC[C@H]1C(=O)N[C@@H](CO)C(=O)N[C@@H](CO)C(=O)NCC(=O)N[C@@H](C)C(=O)N1CCC[C@H]1C(=O)N1CCC[C@H]1C(=O)N1CCC[C@H]1C(=O)N[C@@H](CO)C(=O)O)C(C)C [Compound A33] (H-YSHGTFTSDHSKWLD[Aib]KRAQEFV[Aib]WLEDEPSSGAPPPS-OH; N-terminus assumed)	0.0126 nM	> 1 nM
CC(C)C[C@H](NC(=O)[C@H](Cc1c[nH]c2ccccc12)NC(=O)[C@H](CCCCN)NC(=O)[C@H](CO)NC(=O)[C@H](Cc1c[nH]cn1)NC(=O)[C@H](CC(=O)O)NC(=O)[C@H](CO)NC(=O)[C@@H](NC(=O)[C@H](Cc1ccccc1)NC(=O)[C@@H](NC(=O)CNC(=O)[C@H](Cc1c[nH]cn1)NC(=O)[C@@H](NC(=O)[C@@H](N)Cc1ccc(O)cc1)[C@@H](C)O)[C@@H](C)O)[C@@H](C)O)C(=O)N[C@@H](CC(=O)O)C(=O)NC(C)(C)C(=O)N[C@@H](CCCCN)C(=O)N[C@@H](CCCNC(=N)N)C(=O)N[C@@H](C)C(=O)N[C@@H](CCC(N)=O)C(=O)N[C@@H](CCC(=O)O)C(=O)N[C@@H](Cc1ccccc1)C(=O)N[C@H](C(=O)NC(C)(C)C(=O)N[C@@H](Cc1c[nH]c2ccccc12)C(=O)N[C@@H](CC(C)C)C(=O)N[C@@H](CCC(=O)O)C(=O)N[C@@H](CC(=O)O)C(=O)N[C@@H](CCC(=O)O)C(=O)N1CCC[C@H]1C(=O)N[C@@H](CO)C(=O)N[C@@H](CO)C(=O)NCC(=O)N[C@@H](C)C(=O)N1CCC[C@H]1C(=O)N1CCC[C@H]1C(=O)N1CCC[C@H]1C(=O)N[C@@H](CO)C(=O)O)C(C)C [Compound A34] (H-YTHGTFTSDHSKWLD[Aib]KRAQEFV[Aib]WLEDEPSSGAPPPS-OH; N-terminus assumed)	0.0501 nM	> 1 nM
CC(C)C[C@H](NC(=O)[C@H](Cc1c[nH]c2ccccc12)NC(=O)[C@H](CCCCN)NC(=O)[C@H](CO)NC(=O)[C@H](Cc1c[nH]cn1)NC(=O)[C@H](CC(=O)O)NC(=O)[C@H](CO)NC(=O)[C@@H](NC(=O)[C@H](Cc1ccccc1)NC(=O)[C@@H](NC(=O)CNC(=O)[C@H](Cc1c[nH]cn1)NC(=O)[C@H](CO)NC(=O)[C@@H](N)Cc1ccc(O)cc1)[C@@H](C)O)[C@@H](C)O)C(=O)N[C@@H](CC(=O)O)C(=O)NC(C)(C)C(=O)N[C@@H](C)C(=O)N[C@@H](CCCNC(=N)N)C(=O)N[C@@H](C)C(=O)N[C@@H](CCC(N)=O)C(=O)N[C@@H](CCC(=O)O)C(=O)N[C@@H](Cc1ccccc1)C(=O)N[C@H](C(=O)NC(C)(C)C(=O)N[C@@H](Cc1c[nH]c2ccccc12)C(=O)N[C@@H](CC(C)C)C(=O)N[C@@H](CCC(=O)O)C(=O)N[C@@H](CC(=O)O)C(=O)N[C@@H](CCC(=O)O)C(=O)N1CCC[C@H]1C(=O)N[C@@H](CO)C(=O)N[C@@H](CO)C(=O)NCC(=O)N[C@@H](C)C(=O)N1CCC[C@H]1C(=O)N1CCC[C@H]1C(=O)N1CCC[C@H]1C(=O)N[C@@H](CO)C(=O)O)C(C)C [Compound A36] (H-YSHGTFTSDHSKWLD[Aib]ARAQEFV[Aib]WLEDEPSSGAPPPS-OH; N-terminus assumed)	0.0631 nM	> 1 nM
CC(C)C[C@H](NC(=O)[C@H](Cc1c[nH]c2ccccc12)NC(=O)[C@H](CCCCN)NC(=O)[C@H](CO)NC(=O)[C@H](Cc1ccc(O)cc1)NC(=O)[C@H](CC(=O)O)NC(=O)[C@H](CO)NC(=O)[C@@H](NC(=O)[C@H](Cc1ccccc1)NC(=O)[C@@H](NC(=O)CNC(=O)[C@H](Cc1c[nH]cn1)NC(=O)[C@@H](NC(=O)[C@@H](N)Cc1ccc(O)cc1)[C@@H](C)O)[C@@H](C)O)[C@@H](C)O)C(=O)N[C@@H](CC(=O)O)C(=O)N[C@@H](CO)C(=O)N[C@@H](C)C(=O)N[C@@H](CCCNC(=N)N)C(=O)N[C@@H](C)C(=O)N[C@@H](CCC(N)=O)C(=O)N[C@@H](CCC(=O)O)C(=O)N[C@@H](Cc1ccccc1)C(=O)N[C@H](C(=O)N[C@@H](CCCCN)C(=O)N[C@@H](Cc1c[nH]c2ccccc12)C(=O)N[C@@H](CC(C)C)C(=O)N[C@@H](CCC(=O)O)C(=O)N[C@@H](CC(=O)O)C(=O)N[C@@H](CCC(=O)O)C(=O)N1CCC[C@H]1C(=O)N[C@@H](CO)C(=O)N[C@@H](CO)C(=O)NCC(=O)N[C@@H](C)C(=O)N1CCC[C@H]1C(=O)N1CCC[C@H]1C(=O)N1CCC[C@H]1C(=O)N[C@@H](CO)C(=O)O)C(C)C [Compound A39] (H-YTHGTFTSDYSKWLDSARAQEFVKWLEDEPSSGAPPPS-OH; N-terminus assumed)	0.398 nM	> 1 nM
